Laboratory results reported in patent US20260007600A1, “NUCLEIC ACID DRUG FOR TREATING HYPERURICEMIA-RELATED DISEASES, PREPARATION METHOD THEREFOR, AND USE THEREOF” (Rigerna Therapeutics (Beijing) Co., Ltd., priority 2022, published 2026).

Legend:
[1] = test system: hyperuricemia mouse model; assay: Therapeutic effect in hyperuricemia model mice (uric acid inhibitors injected subcutaneously), Example 8; type: in vivo, C57BL/6 mice; conditions: mUox@iLAND 200 μL tail vein once; Allopurinol daily in drinking water; vs PBS group; FIG. 15
Excerpt: (§1) Female C57BL/6 mice aged 6 to 8 weeks were purchased from SPF (BEIJING) BIOTECHNOLOGY CO., LTD. The mice were randomly divided into 4 groups and subjected to different treatments, i.e., one group was fed normally, and the other three groups were constructed as models of hyperuricemia. For model mice, uric acid inhibitors were subcutaneously injected on Day −14. On Day 0, blood of all the mice was collected by orbital sampling, and serum was separated to detect uric acid levels. After confirming that the models of mice were successfully modeled, the mice were administrated with drug. The mice that were not subjected to the model construction were raised normally and administrated through tail vein injection with 200 μL of PBS (Control group, G1). The mice were subject to the model construction, and on 14 days after the model construction, the mice were administrated through tail vein injection with 200 μL of PBS (PBS group, G2). […] At different time points after the drug administration, blood of the mice was collected by orbital sampling, and the serum was separated and analyzed for uric acid and other biochemical indices. The changes in weight of the mice were recorded throughout the model construction and drug administration.

[2] = test system: hyperuricemia mouse model; assay: Therapeutic effect in hyperuricemia model mice (0.15% high-purine feed), Example 9; type: in vivo, C57BL/6 mice; conditions: for serum uric acid during treatment: Allopurinol daily in drinking water
Excerpt: as §1, with “For the” for “For”, “the mice” for “uric acid inhibitors”, “fed with 0.15% high-purine feed starting from” for “subcutaneously injected on”, “−14, that is, the hyperuricemia model was constructed by continuous high-purine diet.” for “−14.”, “administration. […] The liver tissue was taken for metabolomics analysis, and the heart, liver, spleen, lung, kidney, and other tissues and organs were fixed and analyzed for pathological changes by H&E staining.” for “administration.”
The same method as step 1 of the present example was used to construct the hyperuricemia mouse model, and the therapeutic effect of the novel lipid nanoparticle Uox1@iLAND in the hyperuricemia mouse model was evaluated. […] At different time points after the drug administration, blood of the mice was collected by orbital sampling, and the serum was separated and the uric acid level was measured.

Oc1ncnc2[nH]ncc12 [Allopurinol]
serum uric acid during treatment [1]: able to maintain a certain level of uric acid | serum uric acid level reached ([2]; step 1, Allopurinol daily in drinking water, FIG. 19): around 0 μM | serum uric acid during treatment ([2]; step 1, mUox@iLAND 200 μL tail vein once, FIG. 19): lowered the uric acid level below the normal level | serum uric acid during treatment ([2]; step 2, Uox1@iLAND 200 μL tail vein once, FIG. 24): lower the uric acid level to a level same as the normal level or a level lower than the normal level
